From PubChem BioAssay (NCI)
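Briefly, cells in 96-well plates were exposed to five compound concentrations for 48 h, and endpoints were estimated by linear interpolation. GI50 = concentration required for 50% inhibition of growth. TGI denotes the concentration required for complete inhibition of growth.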

Key:
Test in all cases: NCI tumour cell line growth inhibition, 48 h
[1] = test system: 786-0 renal
[2] = test system: A498 renal
[3] = test system: ACHN renal
[4] = test system: CCRF-CEM leukemia
[5] = test system: COLO 205 colon
[6] = test system: DU-145 prostate
[7] = test system: EKVX NSCLC
[8] = test system: HCT-15 colon
[9] = test system: HOP-92 NSCLC
[10] = test system: HS 578T breast
[11] = test system: HT29 colon
[12] = test system: KM12 colon
[13] = test system: M14 melanoma
[14] = test system: MALME-3M melanoma
[15] = test system: MDA-MB-435
[16] = test system: MOLT-4 leukemia
[17] = test system: NCI-H23 lung
[18] = test system: NCI-H460 lung
[19] = test system: NCI/ADR-RES ovarian
[20] = test system: OVCAR-4 ovarian
[21] = test system: OVCAR-5 ovarian
[22] = test system: PC-3 prostate
[23] = test system: RPMI-8226 leukemia
[24] = test system: RXF 393 renal
[25] = test system: SF-268 CNS
[26] = test system: SF-539 CNS
[27] = test system: SK-MEL-2 melanoma
[28] = test system: SK-MEL-28 melanoma
[29] = test system: SK-OV-3 ovarian
[30] = test system: SN12C renal
[31] = test system: SNB-75 CNS
[32] = test system: SW-620 colon
[33] = test system: TK-10 renal
[34] = test system: UACC-257 melanoma
[35] = test system: UACC-62 melanoma
[36] = test system: UO-31 renal
[37] = test system: A549 NSCLC
[38] = test system: BT-549 breast
[39] = test system: CAKI-1 renal
[40] = test system: HCC-2998 colon
[41] = test system: HCT-116 colon
[42] = test system: HL-60(TB) leukemia
[43] = test system: HOP-62 NSCLC
[44] = test system: IGROV1 ovarian
[45] = test system: K-562 leukemia
[46] = test system: LOX IMVI melanoma
[47] = test system: MCF7 breast
[48] = test system: MDA-MB-231 breast
[49] = test system: NCI-H226 lung
[50] = test system: OVCAR-3 ovarian
[51] = test system: OVCAR-8 ovarian
[52] = test system: SF-295 CNS
[53] = test system: SK-MEL-5 melanoma
[54] = test system: SNB-19 CNS
[55] = test system: SR leukemia
[56] = test system: T-47D breast
[57] = test system: U251 CNS

SMILES: NC(N)=Nc1ccc(Oc2ccc(Nc3ccc(Cl)c(C(F)(F)F)c3)cc2)cc1
- GI50 [1]: 1.74 µM
- TGI [1]: 3.29 µM
- GI50 [2]: 1.28 µM
- TGI [2]: 2.55 µM
- GI50 [3]: 1.8 µM
- TGI [3]: 3.24 µM
- GI50 [4]: 2.21 µM
- TGI [4]: 6.91 µM
- GI50 [5]: 1.73 µM
- TGI [5]: 3.48 µM
- GI50 [6]: 1.74 µM
- TGI [6]: 3.16 µM
- GI50 [7]: 1.76 µM
- TGI [7]: 3.56 µM
- GI50 [8]: 1.94 µM
- TGI [8]: 4.23 µM
- GI50 [9]: 1.38 µM
- TGI [9]: 2.8 µM
- GI50 [10]: 1.9 µM
- TGI [10]: 4.64 µM
- GI50 [11]: 1.6 µM
- TGI [11]: 3.09 µM
- GI50 [12]: 1.65 µM
- TGI [12]: 3.11 µM
- GI50 [13]: 1.65 µM
- TGI [13]: 3.22 µM
- GI50 [14]: 1.79 µM
- TGI [14]: 3.99 µM
- GI50 [15]: 1.59 µM
- TGI [15]: 3.02 µM
- GI50 [16]: 1.83 µM
- TGI [16]: 4.62 µM
- GI50 [17]: 1.64 µM
- TGI [17]: 3.15 µM
- GI50 [18]: 1.78 µM
- TGI [18]: 3.32 µM
- GI50 [19]: 10.4 µM
- TGI [19]: 27.7 µM
- GI50 [20]: 1.73 µM
- TGI [20]: 3.27 µM
- GI50 [21]: 1.71 µM
- TGI [21]: 3.15 µM
- GI50 [22]: 1.51 µM
- TGI [22]: 3.01 µM
- GI50 [23]: 2.46 µM
- TGI [23]: 6.97 µM
- GI50 [24]: 1.58 µM
- TGI [24]: 3.04 µM
- GI50 [25]: 1.62 µM
- TGI [25]: 3.39 µM
- GI50 [26]: 1.69 µM
- TGI [26]: 3.19 µM
- GI50 [27]: 1.76 µM
- TGI [27]: 3.2 µM
- GI50 [28]: 1.64 µM
- TGI [28]: 3.05 µM
- GI50 [29]: 2.18 µM
- TGI [29]: 5.07 µM
- GI50 [30]: 1.66 µM
- TGI [30]: 3.19 µM
- GI50 [31]: 1.26 µM
- TGI [31]: 2.61 µM
- GI50 [32]: 1.7 µM
- TGI [32]: 3.25 µM
- GI50 [33]: 1.82 µM
- TGI [33]: 3.42 µM
- GI50 [34]: 1.64 µM
- TGI [34]: 3.26 µM
- GI50 [35]: 1.7 µM
- TGI [35]: 3.27 µM
- GI50 [36]: 1.84 µM
- TGI [36]: 4.51 µM

SMILES: CC(C)(C)c1ccc(C(=O)Nc2sc3c(c2C(N)=O)CC/C(=N\O)C3)cc1
- GI50 [1]: 3.81 µM
- TGI [1]: 23 µM
- GI50 [2]: 2.09 µM
- TGI [2]: 8.85 µM
- GI50 [37]: 3.44 µM
- TGI [37]: 56.6 µM
- GI50 [3]: 1.55 µM
- TGI [3]: 9.21 µM
- GI50 [38]: 1.06 µM
- TGI [38]: 8.1 µM
- GI50 [39]: 0.756 µM
- TGI [39]: 10.6 µM
- GI50 [4]: 0.505 µM
- TGI [4]: 9.71 µM
- GI50 [5]: 3.39 µM
- TGI [5]: 15.7 µM
- GI50 [6]: 4.21 µM
- TGI [6]: 16.7 µM
- GI50 [7]: 3.77 µM
- TGI [7]: 19.2 µM
- GI50 [40]: 4.79 µM
- TGI [40]: 22.3 µM
- GI50 [41]: 1.5 µM
- TGI [41]: 12.6 µM
- GI50 [8]: 1.48 µM
- TGI [8]: 14.5 µM
- GI50 [42]: 0.675 µM
- TGI [42]: 5.64 µM
- GI50 [43]: 4.91 µM
- TGI [43]: 20.8 µM
- GI50 [9]: 2.43 µM
- TGI [9]: 6.86 µM
- GI50 [10]: 4.66 µM
- TGI [10]: 58 µM
- GI50 [11]: 2.68 µM
- TGI [11]: 19.9 µM
- GI50 [44]: 3.55 µM
- TGI [44]: 32 µM
- GI50 [45]: 0.597 µM
- TGI [45]: 5.82 µM
- GI50 [12]: 2.85 µM
- TGI [12]: 13.5 µM
- GI50 [46]: 1.61 µM
- TGI [46]: 4.35 µM
- GI50 [13]: 2.83 µM
- TGI [13]: 14.2 µM
- GI50 [14]: 2.36 µM
- TGI [14]: 6.53 µM
- GI50 [47]: 2.68 µM
- TGI [47]: 43.1 µM
- GI50 [48]: 3.04 µM
- TGI [48]: 9.11 µM
- GI50 [15]: 3.01 µM
- TGI [15]: 10.2 µM
- GI50 [16]: 2.09 µM
- TGI [16]: 10.6 µM
- GI50 [49]: 2.36 µM
- TGI [49]: 9.9 µM
- GI50 [17]: 2.51 µM
- TGI [17]: 13.4 µM
- GI50 [18]: 3.06 µM
- TGI [18]: 10.1 µM
- GI50 [19]: 2.87 µM
- TGI [19]: 18.6 µM
- GI50 [50]: 3.18 µM
- TGI [50]: 13.6 µM
- GI50 [20]: 1.12 µM
- TGI [20]: 14.2 µM
- GI50 [21]: 3.43 µM
- TGI [21]: 14.3 µM
- GI50 [51]: 3.88 µM
- TGI [51]: 20.2 µM
- GI50 [22]: 1.31 µM
- TGI [22]: 18.6 µM
- GI50 [23]: 1.04 µM
- TGI [23]: 4.92 µM
- GI50 [24]: 0.544 µM
- TGI [24]: 3.11 µM
- GI50 [25]: 5.38 µM
- TGI [25]: 24.7 µM
- GI50 [52]: 3.96 µM
- TGI [52]: 14.8 µM
- GI50 [26]: 2.39 µM
- TGI [26]: 6.39 µM
- GI50 [27]: 2.69 µM
- TGI [27]: 7.01 µM
- GI50 [28]: 3.47 µM
- TGI [28]: 12.4 µM
- GI50 [53]: 2 µM
- TGI [53]: 4.21 µM
- GI50 [29]: 3.53 µM
- TGI [29]: 19.2 µM
- GI50 [30]: 3.2 µM
- TGI [30]: 12.2 µM
- GI50 [54]: 4.18 µM
- TGI [54]: 18.4 µM
- GI50 [31]: 3.65 µM
- TGI [31]: 14.9 µM
- GI50 [55]: 1.36 µM
- TGI [55]: 6.36 µM
- GI50 [32]: 1.93 µM
- TGI [32]: 17.4 µM
- GI50 [56]: 0.739 µM
- TGI [56]: 8.06 µM
- GI50 [33]: 5.81 µM
- TGI [33]: 53.9 µM
- GI50 [57]: 3.66 µM
- TGI [57]: 28.2 µM
- GI50 [34]: 3.27 µM
- TGI [34]: 11.7 µM
- GI50 [35]: 1.95 µM
- TGI [35]: 8.99 µM
